Measured values published in patent US6979664B1, “Composition for accelerating seed germination and plant growth” (Bios Agriculture Inc., priority 1998, dated 2005).

What was measured:
Assay type in all cases: in vivo
corn (Zea mays L.) = assay: germination of corn after 72 h of treatment (petri plate); conditions: 25° C.
Description: Seeds of corn (cv Pioneer 3921) were surface sterilized in 2% sodium hypochlorite solution for 2 minutes and placed in 9 cm diameter Petri plates containing a sheet of filter paper soaked in 10 ml of the required test solution (LCO 10^−5–10^−13). Water served as the control. Observations on germination, length of root primodia and shoot were taken after 72 h of incubation at 25° C. The data was analyzed for significance by an ANOVA protected LSD test using SAS system Version 6.1 (SAS Inc., Cary, N.C., USA).

Beet = assay: seedling emergence under field condition; conditions: six days after planting
Description: (§1) Seeds were surface sterilized with 2% sodium hypochlorite and soaked in different concentrations (10^−5, 10^−7, 10^−9M) of LCO solution for 12 h. Water served as the control. The study was conducted at the experimental field of the Macdonald campus of McGill University, Ste-Anne-de-Belleveue. Quebec, Canada. The field was ploughed to a fine tilth, seeds were hand planted in 1 m rows at 2.5 to 3 cm deep with three replications per treatment. […] The data was analyzed for significance by an ANOVA protected LSD test using SAS system Version 6.1 (SAS Inc., Cary, N.C., USA).

Cotton = assay: seedling emergence under field condition; conditions: for seedling emergence under field condition: Cotton, six days after planting
Description: as §1

Zea mays = assay: seedling emergence at 25° C.
Excerpt: (§2) Plastic pots (7.5 cm dia) were filled with 15 g of autoclaved vermiculite. Seeds of corn (Zea mays—Poaceae), bean (Phaseolus vulgaris—Fabaceae), canola (Brassica napus—Brassicaceae), cucumber (Cucumis sativus—Cucurbitaceae), cantaloupe (Cucumis melo—Cucurbitaceae), cotton (Gossypium sp.—Malvaceae), lettuce (Lactuca sativa—Asteraceae), beet (Beta vulgaris—Chenopodiaceae), and soybean (Glycine max—Fabaceae), were placed at 2.5 cm deep at the rate of 5 or 10 seeds per pot. Pots were irrigated with either 25 mL of LCO solution at different concentrations (10^−6–10^−14M) or aqueous acetonitrile or water, as controls. Acetonitrile was included as one of the controls since LCO was purified in this solvent (see Example 3), after 4 days the pots were irrigated with 10 mL of water once every two days. Each treatment had 4 replications in a randomized block design. Pots were placed on a green house bench maintained at 25±2° C. with a day/night cycle 16/8 h and relative humidity of 70%, or in a growth chamber set at 15° C. with a 16:8 day/night cycle. […] As defined above, seedling emergence has occurred when growth of the plant can be observed above the rooting medium surface. The percent emergence was calculated. The data were analyzed with Statistical Analysis System, version 6.12 (SAS institute Inc. Cary, N.C., USA).

Gossypium sp. = assay: seedling emergence at 25° C.
Excerpt: as §2

Letuca sativa = assay: seedling emergence at 25° C.
Excerpt: as §2

Beta vulgaris = assay: seedling emergence at 25° C.
Excerpt: as §2

Glycine max = assay: seedling emergence at 25° C.
Excerpt: as §2

Cucumis melo = assay: seedling emergence at 25° C.
Excerpt: as §2

Phaseolus vulgaris = assay: seedling emergence at 25° C.
Excerpt: as §2

## CCCCCCC=CCCCCCCCCCC(=O)NC1C(OC2C(CO)OC(OC3C(CO)OC(OC4C(CO)OC(OC5C(COC6OC(C)C(O)C(O)C6OC)OC(O)C(NC(C)=O)C5O)C(NC(C)=O)C4O)C(NC(C)=O)C3O)C(NC(C)=O)C2O)OC(CO)C(O)C1O (centres unmarked) [LCO, NodBj-V(C18:1Δ11)]
Corn (Zea mays L.); LCO 10^−5 M
  Length of root primodia: 53.0 ab mm
  Length of shoot primodia: 12.3 ab mm
  Percent germination: 80 bc Percent
Corn (Zea mays L.); LCO 10^−7 M
  Length of root primodia: 57.6 bc mm
  Length of shoot primodia: 15.0 ab mm
  Percent germination: 73.3 b Percent
Corn (Zea mays L.); LCO 10^−9 M
  Length of root primodia: 48.0 ab mm
  Length of shoot primodia: 9.6 a mm
  Percent germination: 73.3 b Percent
Corn (Zea mays L.); LCO 10^−11 M
  Length of root primodia: 78.6 c mm
  Length of shoot primodia: 21.0 b mm
  Percent germination: 100 c Percent
Corn (Zea mays L.); LCO 10^−13 M
  Length of root primodia: 43.0 bc mm
  Length of shoot primodia: 8.3 a mm
  Percent germination: 80 bc Percent
Beet; 10^−7 M seed soak 12 h
  seedling emergence under field condition: 46.6 c
Beet; LCO 10^−5 M seed soak 12 h
  seedling emergence under field condition: 28.3 a
Beet; LCO 10^−9 M seed soak 12 h
  seedling emergence under field condition: 38.3 ab
Cotton; 10^−7 M seed soak 12 h
  seedling emergence under field condition: 60.0 b
Cotton; LCO 10^−5 M seed soak 12 h
  seedling emergence under field condition: 16.6 a
Cotton; LCO 10^−9 M seed soak 12 h
  seedling emergence under field condition: 23.3 a
Cotton; cotton, LCO at 10^−7M, field
  improvement of emergence as compared to the control: more than 9 times
Zea mays; 10^−6 M
  seedling emergence (%): 76 ab %
Zea mays; 10^−7 M
  seedling emergence (%): 68 abc %
Zea mays; 10^−8 M
  seedling emergence (%): 84 a %
Zea mays; 10^−9 M
  seedling emergence (%): 88 a %
Zea mays; 10^−10 M
  seedling emergence (%): 84 a %
Zea mays; 10^−11 M
  seedling emergence (%): 68 abc %
Zea mays; 10^−12 M
  seedling emergence (%): 48 abc %
Zea mays; 10^−13 M
  seedling emergence (%): 40 c %
Zea mays; 10^−14 M
  seedling emergence (%): 40 c %
Gossypium sp.; 10^−6 M
  seedling emergence (%): 88 a %
Gossypium sp.; 10^−7 M
  seedling emergence (%): 66 ab %
Gossypium sp.; 10^−8 M
  seedling emergence (%): 88 a %
Gossypium sp.; 10^−9 M
  seedling emergence (%): 88 a %
Gossypium sp.; 10^−10 M
  seedling emergence (%): 88 a %
Letuca sativa; 10^−6 M
  seedling emergence (%): 45 a %
Letuca sativa; 10^−7 M
  seedling emergence (%): 35 ab %
Letuca sativa; 10^−8 M
  seedling emergence (%): 10 dc %
Letuca sativa; 10^−9 M
  seedling emergence (%): 20 bcd %
Letuca sativa; 10^−10 M
  seedling emergence (%): 25 abcd %
Letuca sativa; 10^−11 M
  seedling emergence (%): 26 abcd %
Letuca sativa; 10^−12 M
  seedling emergence (%): 30 abc %
Letuca sativa; 10^−13 M
  seedling emergence (%): 5 d %
Letuca sativa; 10^−14 M
  seedling emergence (%): 10 d %
Beta vulgaris; 10^−7 M
  seedling emergence (%): 66.6%
Beta vulgaris; 10^−9 M
  seedling emergence (%): 66 b %
Beta vulgaris; 10^−11 M
  seedling emergence (%): 86 b %
Beta vulgaris; 10^−13 M
  seedling emergence (%): 80 b %
Glycine max; 10^−6 M
  seedling emergence (%): 65 d %
Glycine max; 10^−7 M
  seedling emergence (%): 80 bc %
Glycine max; 10^−8 M
  seedling emergence (%): 90 ab %
Glycine max; 10^−9 M
  seedling emergence (%): 100 a %
Glycine max; 10^−10 M
  seedling emergence (%): 70 cd %
Glycine max; 10^−11 M
  seedling emergence (%): 50 e %
Glycine max; 10^−12 M
  seedling emergence (%): 80 bc %
Glycine max; 10^−13 M
  seedling emergence (%): 70 cd %
Glycine max; 10^−14 M
  seedling emergence (%): 70 cd %
Cucumis melo; 10^−7 M
  seedling emergence (%): 100 b %
Cucumis melo; 10^−9 M
  seedling emergence (%): 100 b %
Cucumis melo; 10^−11 M
  seedling emergence (%): 100 b %
Cucumis melo; 10^−13 M
  seedling emergence (%): 100 b %
Phaseolus vulgaris; 10^−6 M
  seedling emergence (%): 67 abc %
Phaseolus vulgaris; 10^−7 M
  seedling emergence (%): 89 a %
Phaseolus vulgaris; 10^−8 M
  seedling emergence (%): 78 ab %
Phaseolus vulgaris; 10^−9 M
  seedling emergence (%): 67 abc %
Phaseolus vulgaris; 10^−10 M
  seedling emergence (%): 44 abc %
Phaseolus vulgaris; 10^−11 M
  seedling emergence (%): 22 c %
Phaseolus vulgaris; 10^−12 M
  seedling emergence (%): 33 bc %
Phaseolus vulgaris; 10^−13 M
  seedling emergence (%): 33 bc %
Phaseolus vulgaris; 10^−14 M
  seedling emergence (%): 33 bc %
